Experiments:
[1] = tested on: endothelial cells (EA.hy926); assay: Transendothelial Electric Resistance (TER) assay of thrombin-induced endothelial barrier disruption; format: cell-based
Description: The bottom curve in each panel of the figure is labeled as IIa for thrombin alone and represents the observed effects for thrombin (IIa) in the absence of peptide. In each panel, IIa was always present for each peptide added. The number in each panel indicates the concentration of each peptide for the respective curves. The peptide concentration of 0 is represented by the bottom curve labeled “IIa”. (A) the dose response inhibition over time of TER, expressed by Normalized Cell Index (NCI) by the PAR1 derived peptide P1(47-66) or TR47 using concentrations between 5 and 50 nM. (B) the dose response inhibition over time of NCI by the PAR3-derived peptide P3(42-65) or P3R using a 5 to 50 nM concentration range. (C) The NCI dose response inhibition over time by the short sequence PAR1-derived peptide P1(47-55) using a range of concentrations between 50 nM and 100 μM peptide. (D) The NCI dose response inhibition over time by the short sequence PAR3-derived peptide P3(42-54) using a range of concentrations between 1 μM and 200 μM peptide. (E) The NCI dose response inhibition over time by the hybrid peptide G10 in which the P1(47-55) peptide described in panel C was linked to a PAR3 peptide P3(51-65) by using 10 Gly residues. In this case the range of concentrations to study the dose response inhibition was between 3 and 50 nM peptide. An estimate for the percentage of activity for each peptide dilution in presence of thrombin can be quantified by obtaining the Area under the Curve (AUC) for each peptide dilution in comparison to the value for the AUC for thrombin alone in the absence of any peptide. These values were used to calculate the potency of each PAR peptide.
Transendothelial Electric Resistance (TER)-based assays were used to monitor the disruption of endothelial barrier integrity caused by thrombin. The anti-inflammatory, vasculoprotective actions of different PAR peptides for protecting against thrombin-induced vascular leakage on cultured endothelial cells (EA.hy926) were followed in real time using an iCELLigence machine (ACEA Biosciences Inc, San Diego, Calif.). EA.hy926 cells at a density of 10,000/well were pipetted into the wells of gold-plated microelectrode sensor (L8, Acea Biosciences). Subsequently, the increase of electrical resistance was monitored as cells grew and spread out on the microelectrodes to obtain confluence (reaching a plateau) over the TER plates connected to the recording instrument that detected in real time the changes in TER for each well. The effects of different PAR-derived peptides at the indicated concentrations were tested for dose-response inhibition of thrombin's effects when each of the peptide dilutions was added 30 min prior to the addition of thrombin (0.25 nM final in all wells). The percentage of inhibition was proportional to the increase in TER signal over time. Cell index values, reflecting TER signals, were normalized prior to addition of thrombin following manufacturer's directions.

caspase 1 = assay: Caspase 1 activity assay in PMA-differentiated THP1 cells treated with LPS and ATP; format: cell-based, human; details: peptide at 2 nM-20 nM (tested 0-500 nM)
Method: THP1-null (THP1) cells were plated at a final concentration of 1×10^6/mL in 96 well plates and incubated with PMA (0.5 μM) for 3 hours 37° C. in supplemented RPMI. Media was subsequently changed every 24 hours for 3 days. Various subsets of wells were selected and cells were treated for 60 minutes at 37° C. in serum-free RPMI with: (A) APC (4 μg/mL), TR47 (50 μM-2 nM), scrTR47 (50 μM), SFLLRN (50 μM), TFLLRN (50 μM); (B) P3R (50 μM-500 nM), P3K (50 μM); (C) APC (4 or 1 μg/mL), TR47 (8 nM), P3R (500 nM) or TR47+P3R (8 nM and 500 nM, respectively); (D) TR47 (0-128 nM) (●)±P3R (500 nM) (□); (E) P3R (0-500 nM) (●)±TR47 (1 nM) (□). Following DPBS wash, cells were incubated with LPS (1 μg/mL) for 3 hours at 37° C. in serum-free RPMI. After a DPBS wash, cells were incubated with ATP (5 mM) in the presence or absence of 10 μM YVAD (caspase 1 inhibitor) or 2.5 μM ZVAD (pan-caspase inhibitor) for 45 minutes at 37° C., prior to performing the caspase 1 activity assay following manufacturer's directions measuring luminescence (relative luminescent units, RLU). (D & E) Experimental caspase 1 activity was normalized to YVAD (caspase 1 inhibitor) luminescence units. (A-E) Data points represent mean±S.D. of at least 3 independent experiments. *P<0.05 (vs. LPS+ATP); #P<0.05 (vs. LPS+ATP & APC, TR47 or P3R); **P<0.005 (vs. LPS+ATP & TR47+500 nM P3R); n.s. not significant.
THP1 cells were plated at a final concentration of 1×10^6/mL in 96 well plates and incubated with PMA (0.5 μM) for 3 hours 37° C. in supplemented RPMI. Media was subsequently changed every 24 hours for 3 days. Selected wells were treated with APC (4 μg/mL), (A) 50 μM or (B) 2 μM of P3R, P3Rm, P3R 51-65, P3R 51-59, P3R 54-59 or P3R 59-65 for 1 hour, washed with DPBS, and incubated with LPS (1 μg/mL) for 3 hours at 37° C. in serum-free RPMI. Cells were washed with DPBS and incubated with ATP (5 mM) in the presence or absence of 10 μM YVAD (caspase 1 inhibitor; C1i) or 2.5 μM ZVAD (pan-caspase inhibitor; pCi) for 45 minutes at 37° C., prior to performing the caspase 1 activity assay following manufacturer's directions measuring luminescence (relative luminescent units, RLU). (C) Diagram showing the PAR3 sequence, peptide sequences and relative (anti-inflammatory) activity. These include sequences of P3R (SEQ ID NO:4), P3Rm (SEQ ID NO:8), P3R 51-65 (SEQ ID NO:9), P3R 51-59 (SEQ ID NO:10), P3R 54-59 (SEQ ID NO:54) and P3R 59-65 (SEQ ID NO:55).
THP1 cells were plated at a final concentration of 1×10^6/mL in 96 well plates and incubated with PMA (0.5 μM) for 3 hours 37° C. in supplemented RPMI. Media was subsequently changed every 24 hours for 3 days. Selected wells were treated with APC (4 μg/mL), TR47, in (A) 9-mer (TR47 9-mer; NPNDKYEPF (SEQ ID NO:36)) or Ac-TR47 (Acylated TR47) at either 50 μM or 10 nM or (B) 50 μM of 16-mer-TR47, 8-mer-TR47, 6-mer-TR47, TR47 N−1, TR47 N−2, TR47 N−5, TR47AQ, TR47AD, TR47AA or TR48-54 for 1 hour, washed with DPBS, and incubated with LPS (1 μg/mL) for 3 hours at 37° C. in serum-free RPMI. Cells were washed with DPBS and incubated with ATP (5 mM) in the presence or absence of 10 μM YVAD (caspase 1 inhibitor; C1i) or 2.5 μM ZVAD (pan-caspase inhibitor; pCi) for 45 minutes at 37° C., prior to performing the caspase 1 activity assay following manufacturer's directions measuring luminescence (relative luminescent units, RLU). #P<0.001 (vs. LPS+ATP), **P<0.005 (vs. LPS+ATP), * (P<0.05 vs. LPS+ATP). (C) Diagram showing the PAR1 sequence, peptide sequences and relative (anti-inflammatory) activity. These include sequences of TR47 (SEQ ID NO:7), Ac-TR47 (SEQ ID NO:56), 16-mer-TR47 (SEQ ID NO:43), 9-mer-TR47 (SEQ ID NO:36), 8-mer-TR47 (SEQ ID NO:35), 6-mer-TR47 (SEQ ID NO:33), TR47 N−1 (SEQ ID NO:47), TR47 N−2 (SEQ ID NO:51), TR47 N−5 (SEQ ID NO:48), TR47AQ (SEQ ID NO:49), TR47AD (SEQ ID NO:52), TR47AA (SEQ ID NO:50) and TR48-54 (SEQ ID NO:53). […]

EC50 ([1]; stabilization of endothelial cell barrier integrity, thrombin 0.25 nM, peptide added 30 min prior, read-out: half-maximum observed activity): ~6 nM
Sequence: NPNDKYEPFGGGGGGGGGGFPFSALEGWTGATIT [G10, PAR1/PAR3 fusion peptide, P1(47-55) linked to P3(51-65) by 10 Glycine residues]
effect on thrombin-induced disruption of endothelial barrier ([1]; peptide at 3 to 50 nM): very significant effects | effectiveness relative to PAR3 peptide P3(42-54) alone ([1]; protection of endothelial barrier integrity): > 100 fold | potency relative to the long PAR1 peptide TR47 ([1]; protection of endothelial barrier integrity, 6 nM G10 compared to 50 nM PAR1 peptide): ~8 fold | caspase-1 activity (caspase 1): a significant reduction in caspase-1 activity
